One data set deals with Shank2−/− mice. The conditions noted are these: previous studies [35-38]; cited from earlier work.
Another data set relates to CTTNBP2 R533* mice. Description: Reciprocal social interaction (RSI) test, R533* mutant mice. It is filed as in vivo, mouse. As for the experimental part: (§1) Mouse behaviors were recorded by videotaping from above. […] Aggressive behavior was not assessed. […] The zinc concentrations were normalized by protein amounts. […] The first trial was performed before zinc supplementation. […] Reciprocal social interaction trials were performed as described above. To analyze the effect of D-cycloserine (DCS, ab120121, Abcam) on social behaviors of Cttnbp2 mutant mice, adult mice (˜8 weeks old) were first habituated to handling by subjecting them to an open field with or without inanimate objects. Mice were then isolated until ˜10 weeks old for reciprocal social interaction trials. During isolation, mice were habituated to intraperitoneal injection, which effectively reduces their anxiety response to intraperitoneal injection during the experimental period. On day 1 of the experiment, saline control (0.9% of NaCl) was intraperitoneally injected into the test animal 30 min before a reciprocal social interaction trial, conducted as described above. On day 2 of the experiment, D-cycloserine solution (2 mg/kg in 0.9% of NaCl) was intraperitoneally injected into mice 30 min before a reciprocal social interaction trial.

A further data set deals with Cttnbp2−/− mice. Description: Reciprocal social interaction (RSI) test, Cttnbp2−/− mice. Type of data set: in vivo, mouse. As for the experimental part: as §1
Another data set deals with CTTNBP2 M120I mice. Description: Reciprocal social interaction (RSI) test, M120I mutant mice. The conditions noted are these: for social interaction in RSI, single supplement: CTTNBP2 M120I mice, individually provided: zinc (20 ppm), BCAA (0.225%), serine (0.5%). Type of data set: in vivo, mouse.
In a further data set the test system is Tbr1+/− mice. The following applies: cited from earlier work; for behavioral defects and autism-like behaviors: refs [49, 50, 51].
The test system of data set [1] is synaptic proteins and glutamate receptors in synaptosomal fractions of Cttnbp2−/− mouse brains. The conditions noted are these: 40 ppm zinc in drinking water for 7 days vs regular water. Here is the method: One hemisphere of the forebrains from adult mice (˜8-weeks-old) were isolated and homogenized using a tissue dounce homogenizer with a loose pestle in 1 ml sucrose buffer [50 mM Tris-Cl pH 7.4, 320 mM sucrose, 2 mM DTT, 2 μg/ml leupeptin, 2 μg/ml pepstatin-A, 2 μg/ml aproteinin, 2 mM PMSF, 2 μg/ml MG132]. An aliquot of 50 μl of total homogenate was kept. The remainder of the total homogenate was centrifuged twice at 800×g for 10 min at 4° C. The supernatant was centrifuged at 9200×g for 15 min to collect the pellet as a crude synaptosomal fraction. The protein concentrations of total homogenates and synaptosomal fractions were determined by Bradford assay (Bio-Rad Protein Assay Dye Reagent Concentrate, Cat #5000006). Synaptosomal protein samples were then analyzed with LC-MS-MS and immunoblotting.
To validate CTTNBP2 expression in knockout mice, adult mouse brain (˜8 weeks old) samples were homogenized in RIPA buffer. After 30 min, debris was removed by centrifugation (13000 rpm in a microcentrifuge for 20 min). The supernatants were collected and protein amounts were determined by Bio-Rad Protein Assay Dye Reagent Concentrate. Protein samples were denatured by 2× sample buffer and boiled for 10 min. Five μg of protein samples were separated by SDS-PAGE and then transferred to PVDF membrane. Membranes were blocked using blocking buffer [5% skim milk and 0.1% Tween-20 in PBS] for 30 min and hybridized with primary antibodies. In principle, primary antibody was added into blocking buffer and hybridized with the membrane overnight at 4° C. or for 3 hr at room temperature. Horseradish peroxidase-conjugated goat anti-mouse, rabbit, or guinea pig secondary antibodies were used to detect primary antibody and were visualized using a Western Lightening Plus ECL system (PerkinElmer).
(§2) The concentration of zinc in the mouse chow (5K54, LabDiet) provided in our animal facility is 84 ppm. To increase the zinc intake to ˜150 ppm, mice were provided with ZnSO4 (Z0251, Sigma-Aldrich) in drinking water at a concentration of 40 ppm, which is based on daily consumption of ˜5 ml water and 2.5 g chow by each mouse. To study the expression of synaptic proteins after zinc supplementation, adult mice (˜8 weeks old) were fed with zinc-supplemented water or normal drinking water as control for 7 days and then sacrificed for synaptosomal analysis as described above. To validate the zinc levels in brain, zinc quantification kit (ab102597, Abcam) was used according to manufacturer's instruction. The zinc concentrations were normalized by protein amounts. To study the effect of zinc supplementation on social behavior of Cttnbp2 deletion and mutant mice, three consecutive trials of reciprocal social interaction were performed at intervals of 7 days (FIG. 8C). The first trial was performed before zinc supplementation. After the first trial, mice were provided with zinc-supplemented water (40 ppm) for 7 days and then subjected to the second trial. After the second trial, zinc-supplemented water was replaced with normal drinking water for 7 days and mice then underwent the third trial. Reciprocal social interaction trials were performed as described above.

For data set [2] the following is noted: zinc supplementation in drinking water, experimental period.
For data set [3] the following is noted: Cttnbp2−/− mice; 40 ppm zinc in drinking water for 7 days vs regular water. As for the experimental part:
as §2

A further data set deals with wild-type mice. The following applies: 40 ppm zinc in drinking water for 7 days. As for the experimental part:
as §2

Method for CTTNBP2 M120I mice: Before RSI, mice were individually isolated for at least a week. For the experiment, an unfamiliar adult mouse was put into the home cage of the test mouse for 10 min. The lid of the cage was removed during the entire session. Mouse behaviors were recorded by videotaping from above. The total time a test mouse spent interacting with and gently sniffing the unfamiliar mouse was manually recorded. Aggressive behavior was not assessed.
A supplement or supplement mixture was prepared by mixing a zinc ion source, a serine component and/or BCAAs at various concentrations in drinking water for behavior analyses.
We tested three different ASD mouse models, i.e. Nf1+/−, Tbr1+/−, and Cttnbp2 M120I mice. Before taking supplement, mice were subjected to the first reciprocal social interaction test. After taking supplement for 7 days, mice were analyzed again using reciprocal social interaction to evaluate the effect of nutritional supplementation.

For `N[C@@H]1CONC1=O` [D-cycloserine, (4R)-4-amino-1,2-oxazolidin-3-one, reference compound], the social behaviors result in the data set on Shank2−/− mice and with Tbr1+/− mice (previous studies [35-38]) was “improves” each time. Moreover, the “social interaction behaviors in RSI test” value in the data set on CTTNBP2 R533* mice (R533* mutant mice, 2 mg/kg intraperitoneally 30 min before RSI, vs saline) is given as “improved”; with CTTNBP2 M120I mice (M120I mutant mice, 2 mg/kg intraperitoneally 30 min before RSI, vs saline) it was “improved”. In addition, in the data set with Cttnbp2−/− mice (2 mg/kg intraperitoneally 30 min before RSI, vs saline control), the “social interaction behavior in RSI test” value was “increased social interaction behavior”. For the same molecule, the “behavioral defects and autism-like behaviors” value in the data set on Tbr1+/− mice is “ameliorate the behavioral defects and improve autism-like behaviors”.
As to `Oc1c(I)cc(Cl)c2cccnc12` [clioquinol], in the data set with Tbr1+/− mice, the “behavioral defects and autism-like behaviors” value is “ameliorate the behavioral defects and improve autism-like behaviors”.
Turning to `N[C@@H](CO)C(=O)O` [serine, L-Serine], the “social interaction in RSI, single supplement” value in the data set on CTTNBP2 M120I mice is reported as “did not improve”.
Regarding `O.O.O.O.O.O.O.O=S(=O)([O-])[O-].[Zn+2]` [zinc, Zinc sulfate heptahydrate], in the data set on CTTNBP2 R533* mice (R533* mice, 7 days after discontinuing zinc supplementation, vs second RSI test), the “social interaction, third RSI test” value was “tended to be lowered, but it was not statistically different from those of the second RSI”. The “time interacting with the unfamiliar mouse, second RSI test” value in the data set on CTTNBP2 R533* mice (R533* mice, after 40 ppm zinc in drinking water for 7 days, vs first RSI test) is recorded as “spent significantly longer interacting with the unfamiliar mouse”. Moreover, in [1], the “GRIN1 expression level in synaptosomal fractions” value is recorded as “increased”, the “GRIN2B expression level in synaptosomal fractions” value is “increased”, the “MOB4 expression level in synaptosomal fractions” value was “increased” and the “RAC3 expression level in synaptosomal fractions” value was “increased”. Also, in [1], the “SHANK2 expression level in synaptosomal fractions” value is given as “increased”, the “SHANK3 expression level in synaptosomal fractions” value is “increased”, the “STRN expression level in synaptosomal fractions” value is given as “increased” and the “cortactin expression level in synaptosomal fractions” value is “increased”. In data set [1], the “levels of GRIA1 in synaptosomal fractions” value is “not noticeably altered”, the “levels of GRIA2 in synaptosomal fractions” value is listed as “not noticeably altered” and the “synaptic levels of DPYSL3” value is recorded as “reduced”. Also, in the data set on Cttnbp2−/− mice (7 days after discontinuing zinc supplementation, vs second RSI test), the “social interaction, third RSI test” value is recorded as “reduced”. Further, the “time interacting with the unfamiliar mouse, second RSI test” value with Cttnbp2−/− mice (after 40 ppm zinc in drinking water for 7 days, vs first RSI test) is recorded as “spent significantly longer interacting with the unfamiliar mouse”. Further, the “social interaction in RSI, single supplement” value in the data set on CTTNBP2 M120I mice is given as “did not improve”. For the same molecule, in data set [2], the body weight result is “nor did it alter” and the “volumes of water drunk daily” value is recorded as “nor did it alter”. Also, in [3], the “concentration of zinc in brains” value was “increase”. The “social behaviors in RSI tests” value in the data set with wild-type mice was “did not noticeably influence”.

The record behind these values is US12059433B2, “Treatment for autistic spectrum disorder (ASD) and relevant symptoms” (ACADEMIA SINICA, priority 2019, dated 2024).
